“And” between values parts separate entries of the source, which are not always exact repeats. Equal entries are not always repeated.
Tested on: MeV/NewJersey.USA/94/1 (genotype D6)
Assay: PK and PD recapitulation ex vivo in MeV-infected human PBMCs, progeny virus titer (TCID50)
Assay type: cell-based, Measles virus in human PBMCs
Details: for Virus titers: hPBMCs, individual repeats; for Mean, Transform of Virus Titer: n = 4
Experimental: Human peripheral blood mononuclear cells (hPBMCs) were infected (MOI = 0.1 TCID50 units per cell) in a 24-well plate format with MeV/NewJersey.USA/94/1 (genotype D6) in the presence of ERDRP-0519 or DMSO (0.1%). […] Cells were collected 48 h after infection and virus was subsequently harvested after two freeze thaw cycles. Released virus titers were then determined by limited dilution method (TCID50) on Vero/hSLAM cells. Four biological repeats were used for each ex vivo PK recapitulation and three biological repeats were used for DMSO-treated hPBMCs.
PK and PD recapitulation in human blood mononuclear cells
To test whether viral replication in […]
circumstances, we performed an in vitro recapitulation experiment. For this, we infected human PBMCs in a 24-well plate format with MeV/NewJersey.USA/94/1 (genotype D6) at a multiplicity of infection of 0.1 TCID 50 units per cell. To mimic the ERDRP-0519 serum concentration profile in vitro , we adjusted the drug concentrations in our PBMC cultures multiple times during the incubation period as shown by the colored areas in Fig. 1c (recapitulating a once per day treatment regimen, q.d.) and Fig. 1d (recapitulating a twice daily treatment regimen, b.i.d.) and summarized in Supplementary Table 3. The concentration changes were applied for a total of 48 h to the infected PBMC cultures (a total of two cycles of the q.d. regimen and four cycles of the b.i.d. regimen, assuming no drug accumulation during repeated treatment). As controls, infected PBMCs were incubated in the presence of vehicle only (0.1 % DMSO) or with a constant concentration of 1.5 µM of ERDRP-0519 over the whole period of 48 h post infection. Cells were collected 48 hours after infection and virus was subsequently harvested after two freeze thaw cycles. Released virus titers were then determined by limited dilution method (TCID 50) on Vero/hSLAM cells (Fig. 1e). Four biological repeats were used for each ex vivo PK recapitulation and three biological repeats were used for DMSO-treated hPBMCs.

## Cn1nc(C(F)(F)F)cc1C(=O)Nc1ccc(S(=O)(=O)N2CCCC[C@H]2CCN2CCOCC2)cc1 [ERDRP-0519]
Continuous exposure of MeV-infected hPBMCs to 1.5 µM, 48 h
  reduction in progeny virus titer: greater than three orders of magnitude reduction
48 h, b.i.d. 50 mg/kg simulated profile
  Virus titers: 1.80E+02 TCID50/10^6 PBMCs and 3.21E+02 TCID50/10^6 PBMCs and 4.27E+02 TCID50/10^6 PBMCs and 7.60E+01 TCID50/10^6 PBMCs
48 h, constant 1.5 μM
  Virus titers: 7.60E+01 TCID50/10^6 PBMCs and 5.70E+01 TCID50/10^6 PBMCs and 4.27E+01 TCID50/10^6 PBMCs
48 h, q.d. 50 mg/kg simulated profile
  Virus titers: 1.80E+03 TCID50/10^6 PBMCs and 2.40E+03 TCID50/10^6 PBMCs and 3.21E+03 TCID50/10^6 PBMCs and 1.35E+03 TCID50/10^6 PBMCs
Once daily recapitulation
  Mean, Transform of Virus Titer: 3.318
Once daily vs. trough
  Mean Diff., Transform of Virus Titer: 1.531
Once daily vs. twice daily
  Mean Diff., Transform of Virus Titer: 0.9998
Once daily vs. vehicle
  Mean Diff., Transform of Virus Titer: -1.854
q.d. and b.i.d. regimen recapitulated ex vivo in hPBMCs, 48 h
  progeny MeV titers versus untreated controls: significantly (p < 0.0001) lower than in untreated controls
Trough (constant 1.5 µM)
  Mean, Transform of Virus Titer: 1.787
Trough vs. vehicle
  Mean Diff., Transform of Virus Titer: -3.385
Twice daily recapitulation
  Mean, Transform of Virus Titer: 2.318
Twice daily vs. trough
  Mean Diff., Transform of Virus Titer: 0.5313
Twice daily vs. vehicle
  Mean Diff., Transform of Virus Titer: -2.853

Source: article PMC8413292, “Small-molecule polymerase inhibitor protects non-human primates from measles and reduces shedding” (Nature Communications, 2021)
